From patent publication US9714236B2, “Compounds and methods for inhibiting JAK” (AstraZeneca AB, priority 2015, dated 2017)

How the values were obtained:
Format in all cases: biochemical
[1] = biological target: recombinant JAK2 (amino acids 831-1132) (Homo sapiens (Human), UniProt O60674); experiment: Enzyme inhibition studies, JAK2 (peptide phosphorylation, Caliper LC3000); settings: ATP concentration of the tabulated values not stated (assayed at ATP Km 15 μM and at 5 mM)
[2] = biological target: recombinant JAK1 (amino acids 866-1154) (Homo sapiens (Human), UniProt P23458); experiment: Enzyme inhibition studies, JAK1 (peptide phosphorylation, Caliper LC3000); settings: ATP concentration not given (assayed at ATP Km 55 μM and at 5 mM)
How it was run: (§1)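 N-terminal GST-tagged human kinase domains (JAK1 aa 866-1154; JAK3 aa 781-1124), insect-cell expressed, were assayed in 50 mM HEPES pH 7.3, 10 mM MgCl2, 1 mM DTT. Percent inhibition came from Caliper LC3000 separation of phosphorylated and unphosphorylated peptide.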

[3] = biological target: recombinant JAK3 (amino acids 781-1124) (Homo sapiens (Human), UniProt P52333); experiment: Enzyme inhibition studies, JAK3 (peptide phosphorylation, Caliper LC3000); settings: ATP concentration of the tabulated values not stated (assayed at ATP Km 3 μM and at 5 mM)
How it was run: as §1

Chain of recombinant JAK1 (amino acids 866-1154) (P23458 866-1154): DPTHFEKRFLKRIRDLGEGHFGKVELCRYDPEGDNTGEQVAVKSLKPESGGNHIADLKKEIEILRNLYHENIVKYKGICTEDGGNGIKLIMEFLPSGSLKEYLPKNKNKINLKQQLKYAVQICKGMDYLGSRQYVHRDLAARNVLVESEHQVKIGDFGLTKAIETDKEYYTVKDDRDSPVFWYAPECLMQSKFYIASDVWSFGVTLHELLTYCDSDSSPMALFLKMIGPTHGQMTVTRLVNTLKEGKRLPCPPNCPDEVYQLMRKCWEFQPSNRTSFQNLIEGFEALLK
Chain of recombinant JAK2 (amino acids 831-1132) (O60674 831-1132): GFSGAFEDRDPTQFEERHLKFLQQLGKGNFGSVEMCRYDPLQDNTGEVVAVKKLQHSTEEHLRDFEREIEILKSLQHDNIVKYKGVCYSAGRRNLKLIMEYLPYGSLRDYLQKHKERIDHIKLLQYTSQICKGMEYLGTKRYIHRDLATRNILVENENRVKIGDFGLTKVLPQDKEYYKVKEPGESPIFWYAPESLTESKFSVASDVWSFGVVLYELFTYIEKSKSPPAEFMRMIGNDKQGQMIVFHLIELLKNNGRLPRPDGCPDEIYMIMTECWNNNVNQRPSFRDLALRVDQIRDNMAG
Chain of recombinant JAK3 (amino acids 781-1124) (P52333 781-1124): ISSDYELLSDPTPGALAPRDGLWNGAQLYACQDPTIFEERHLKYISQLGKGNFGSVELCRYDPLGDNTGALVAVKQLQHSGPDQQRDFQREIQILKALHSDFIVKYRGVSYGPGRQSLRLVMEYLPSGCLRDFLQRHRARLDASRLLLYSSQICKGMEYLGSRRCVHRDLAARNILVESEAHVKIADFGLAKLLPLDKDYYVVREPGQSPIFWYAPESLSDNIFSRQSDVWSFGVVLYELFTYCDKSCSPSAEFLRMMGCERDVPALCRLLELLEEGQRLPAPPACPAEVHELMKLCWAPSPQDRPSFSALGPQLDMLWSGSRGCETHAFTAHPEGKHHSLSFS

CCOc1nn(C)cc1Nc1ncc(C)c(-c2c[nH]c3c(NC(=O)[C@@H](CC)N4CCN(C)CC4)cccc23)n1 [Example 62, (2R)-N-(3-{2-[(3-ethoxy-1-methyl-1H-pyrazol-4-yl)amino]-5-methylpyrimidin-4-yl}-1H-indol-7-yl)-2-(4-methylpiperazin-1-yl)butanamide]
IC50 [1]: 5.01 µM | IC50 [2]: < 0.006 µM | IC50 [3]: > 30 µM

CCOc1nn(C)cc1Nc1ncc(C)c(-c2c[nH]c3c(NC(=O)[C@H](CC)N4CCN(C)CC4)cccc23)n1 [Example 63, (2S)-N-(3-{2-[(3-ethoxy-1-methyl-1H-pyrazol-4-yl)amino]-5-methylpyrimidin-4-yl}-1H-indol-7-yl)-2-(4-methylpiperazin-1-yl)butanamide]
IC50 [1]: > 30 µM | IC50 [2]: 0.192 µM | IC50 [3]: > 30 µM
